Data reported in US20030225002A1, “Co-therapy for the treatment of migraine comprising anticonvulsant derivatives and anti-migraine agents” (priority 2002, published 2003).
Where a name gives a salt, the structure may show the parent alone.

What was measured:
Assay type in all cases: in vivo, human
[1] = tested on: refractory migraine (migraine without aura); test: Case Study 2: refractory migraine without aura; settings: for Response of refractory migraine to earlier therapy: CORGARD in combination with PROZAC or CELEXA or trazodone
Method: The patient was a person with a lifelong history of refractory migraine (migraine without aura), averaging 8 migraines per month. […] The patient was started on topiramate at 25 mg/day, with dosage increasing to 75 mg/day. Simultaneously, the beta-blocker, CORGARD dosage was decreased to 20 mg/day, with CELEXA at 20 mg/day also continued.

[2] = tested on: severe refractory migraine with and without aura; test: Case Study 3: severe refractory migraine with and without aura
Method: The patient was a person with a twenty-year history of severe refractory migraine with and without aura. […] The patient was started on topiramate at 50 mg/day increasing to 100 mg in the morning and 100 mg in the evening, in combination with INDERAL at 160 mg/day. […] After about 6 months, the patient was prescribed EFFEXOR XR (vanlafaxine HCl) at 37 mg/day, an increased topiramate dose of 125 mg in the morning and 150 mg in the evening, and 160 mg/day INDERAL.

[3] = tested on: persistent daily headache with migraine features; test: Case Study 1: persistent daily headache with migraine features; settings: one patient; for Response of persistent daily headache to earlier therapy: before topiramate
Source text: The patient was a person with persistent daily headache with migraine features.

In the case of `CN(C)CCCC1(c2ccc(F)cc2)OCc2cc(C#N)ccc21` (stereo not shown) [CELEXA, citalopram HCl], the “Response of refractory migraine to earlier therapy” value (“Response of refractory migraine” below) [1] is reported as “no response”.
`CC(C)(C)NCC(O)COc1cccc2c1CC(O)C(O)C2` (stereo not shown) [CORGARD, nadolol] was tested, and the “Response of refractory migraine” value [1] was “no response”.
For `CCCC(CCC)C(=O)O` [DEPAKOTE, valproic acid], the “Response of severe refractory migraine” value ([2]; earlier therapy) was “modest symptomatic response” and the “Tolerability, reason for discontinuation” value ([2]; earlier therapy) was “discontinued due to weight gain”.
In the case of `CC(C)NCC(O)COc1cccc2ccccc12.Cl` (stereo not shown) [INDERAL, propranolol HCl], the “Response of severe refractory migraine” value ([2]; INDERAL at 120 mg/day in combination with tricyclic antidepressants) is reported as “Only modest response” and the “Response of persistent daily headache to earlier therapy” value (“Response of persistent daily headache” for short) [3] is reported as “failed to respond”.
For `CN1CCC(=C2c3ccccc3C=Cc3ccccc32)CC1` [PERIACTIN, cyproheptadine HCl], the “Response of persistent daily headache” value [3] was “failed to respond”.
For `CNCCC(Oc1ccc(C(F)(F)F)cc1)c1ccccc1` (stereo not shown) [PROZAC, fluoxetine HCl], the “Response of refractory migraine” value [1] was “no response”.
In the case of `CNS(=O)(=O)CCc1ccc2[nH]cc(C3CCN(C)CC3)c2c1` [naratriptan], the “Response of severe headaches” value [3] is reported as “did however respond”.
With `CNCCC=C1c2ccccc2CCc2ccccc21` [nortriptyline] the “Response of persistent daily headache” value [3] was “failed to respond”.
`Cc1cc2nc3c(=O)[nH]c(=O)nc-3n(C[C@H](O)[C@H](O)[C@H](O)CO)c2cc1C` [riboflavin] was tested, and the Effect of supplementation ([1]; 400 mg/day) was “no improvement”.
In the case of `CNS(=O)(=O)Cc1ccc2[nH]cc(CCN(C)C)c2c1` [sumatriptan], the “Response of severe refractory migraine” value ([2]; repeated frequent use) is reported as “symptomatic response”.
With `O=c1n(CCCN2CCN(c3cccc(Cl)c3)CC2)nc2ccccn12` [trazodone] the “Response of refractory migraine” value [1] was “no response”.
